One assay deals with HepG2 cells. The experiment in a line: MTT anti-proliferative assay, HepG2. The following applies: Homo sapiens. In kind it is cell-based. As for the experimental part:
The anti-proliferative activity of Formula I compounds are studied on HepG2 cells using MTT assay. Briefly, the cells (2.5×10^4/ml) are incubated in triplicate in a 96-well plate in the presence or absence of different concentrations of compounds in a final volume of 0.2 ml up to 72 hours at 37° C. Thereafter, 20 μl MTT solution (5 mg/ml in PBS) is added to each well. After 2 hours of incubation at 37° C., 0.1 ml lysis buffer (20% SDS, 50% dimethyl-formamide) is added; incubation is continued overnight at 37° C.; and the optical density (OD) at 570 nm is measured by Tecan plate reader.

In the next assay the test system is JAK2. Description: Western blot of constitutive phospho-JAK2 in HepG2. The class given is cell-based, human. The following applies: HepG2, 10 μMol/L CIMO. As for the experimental part: FIG. 2 depicts the suppression of phospho-STAT3 by compound 1 (CIMO) in a dose dependent manner [A]. HepG2 cells (5×10^5/mL) are treated with the indicated concentrations of CIMO for 6 hours, after which whole-cell extracts are prepared and resolved on SDS-PAGE gel, electrotransferred onto nitrocellulose membrane, and probed for phospho-STAT3. The same blot is stripped and reprobed with STAT3 antibody to verify equal protein loading. […] HepG2 cells (5×10^5/mL) are treated with the indicated concentrations of AG490 for about 6 hours, after which Western Blotting is done as described for [A]. [C] depicts the suppression of phospho-STAT3 levels by Compound 1 (CIMO) in a time-dependent manner. HepG2 cells (5×10^5/mL) are treated with 10 μMol/L CIMO for the indicated times, after which Western blotting is done as described for [A]. [D] depicts that compound 1 (CIMO) has no effect on phospho-STAT3 (Ser-727) and STAT3 protein expression. […] HepG2 cells (1×10^5/mL) are incubated with or without 10 μMol/L CIMO for about 6 hours and then analyzed for the intracellular distribution of STAT3 by immunocytochemistry. The same slides are counterstained for nuclei with Hoechst (50 ng/mL) for about 5 minutes and analyzed under an fluorescencemicroscope. […]

The subject of another assay is caspase-3 and PARP. Description: Western blot of procaspase-3 and PARP cleavage. In kind it is cell-based, human. The following applies: HepG2, 10 μMol/L CIMO, time dependent. As for the experimental part:
FIG. 4 depicts activation of caspase-3 and induction of apoptosis by Compound 1 (CIMO) [A]. HepG2 cells (5×10^5/mL) are treated with 10 μMol/L CIMO for the indicated times, whole-cell extracts are prepared, separated on SDS-PAGE, and subjected to Western Blotting against caspase-3 and PARP antibody. The same blot is stripped and reprobed with Beta actin antibody to show equal protein loading. [B] Tyrosine phosphatase inhibitor-sodium pervanadate reverses the inhibitory effect of Compound 1 (CIMO) on phospho-STAT3. HepG2 cells (5×10^5/mL) are treated with the indicated concentrations of sodium pervanadate and 10 μMol/L CIMO for about 4 hours, after which whole-cell extracts are prepared, resolved on SDS-PAGE gel, electrotransferred onto nitrocellulose membrane, and probed for phospho-STAT3 and STAT3. [C] illustrates the inhibitory activity of Compound 1 (CIMO) on phospho-STAT3 mediated by protein tyrosine phosphatase. […]
To detect STAT3-regulated proteins and PARP, cells (2×10^6/ml) are treated with CIMO for the indicated times as shown in respective FIGS. 3E, 3D and 4A. […] Whole-cell extract protein (30 μg) is resolved on SDS-PAGE, electrotransferred onto a nitrocellulose membrane, blotted with antibodies against survivin, Bcl-2, Bcl-xL, cyclin D1, Bak, Bid, ICAM-1, procaspase-3, and PARP and then detected by chemiluminescence (ECL; GE Healthcare, Little Chalfont, Buckinghamshire, UK).

SMILES strings stand for the structures.

For `COc1ccc(C2CNC(c3cn(Cc4ccc(-c5ccccc5C#N)cc4)c4ccccc34)OC23CCCCC3)cc1` (centres unmarked) [Compound 1], the IC50 turned out to be 7.3 µM in the assay with HepG2 cells (HepG2, Table 2) and 7.3 µM with HepG2 cells (HepG2 cells after 72 hours, MTT). For the same compound, the “phosphorylation of JAK2” value with JAK2 is recorded as “significant inhibition”. Also, in the assay with caspase-3 and PARP, the “full length PARP / cleaved 85-kDa fragment” value is “decline of full length PARP with increase in cleaved 85-kDa fragment”. Further, in the assay with caspase-3 and PARP, the procaspase-3 activation result is “activation of procaspase-3”.
